Laboratory results from patent publication EP0940081A1, “Combinations of active agents and disinfectants, preservatives and antiseptics containing same” (Bode Chemie GmbH & Co., priority 1998, dated 1999).
Like-named read-outs stand apart in the source and are kept apart here.

Tests used:
Staphylococcus aureus [1] = assay: Agar diffusion test, inhibition zone; assay type: cell-based; conditions: Aktivator ja, 24 h
Protocol: Methodik: Decylthiouroniumbromid wurde in abgestuften Konzentrationen im Agar inkorporiert. In Stanzlöcher wurde eine Natriumperboratlösung ohne und mit Aktivierung pipettiert. Die Platten wurden mit Staphylococcus aureus beimpft und 24 h bebrütet. Der entstehende Hemmhof wurde gemessen.

[2] = Cytotoxicity, cell count of monolayer culture after 24 h exposure; assay type: cell-based, human; conditions: human, fl amnion cells, 24 h, read-out: Median der Zellzahl
Protocol: (§1) Methodik: Die Zytotoxizität wird an der FL-Linie (menschliche Amnionzellen) geprüft. 2-3 Tage nach der Zelleinsaat werden die Zellen, nachdem sie als einschichtige Zellkultur (Monolayer) vorliegen, nach Medienwechsel für 24 h mit der Prüfsubstanz exponiert, danach abgelöst und die Zellzahl in % zur Kontrolle mit dem Zellzähler Universal 87001 (mölab, Hilden) ermittelt.

Enterococcus faecium = assay: Agar incorporation test, bacteriostatic activity; assay type: cell-based; design: key: ⊕⊕: ungehemmtes Wachstum; ⊕: vermindertes Wachstum; -: absolute Hemmung (a. H.); conditions: 24 h bei 36 °C
Description: (§2) Methodik: Percarbamid und Dodecylthiouroniumchlorid werden unter städigem Durchmischen bis zur vollständigen Homogenisierung erwärmt. Die Prüfung der Kombination im Vergleich zu den entsprechenden Monowirkstoffen auf bakteriostatische Wirksamkeit erfolgte im Agarinkorporationstest. Die zu untersuchenden Substanzen wurden in Wasser standardisierter Härte gelöst. Die Konzentration der Testsubstanzen im Nähragar wurde in einer geometrischen Reihe auf der Basis 2 abgestuft. Zum Beimpfen der Testplatten wurden die im Beispiel 1 genannten Testkeime 6 h in Caseinpepton-Sojamehlpepton-Lösung bebrütet und so in eine logarithmische Wachstumsphase gebracht. Danach wurden die Agarplatten sternförmig sektorenweise mit jeweils einer ? abgestrichenen Öse beimpft. Der Sektor von Proteus mirabilis wurde durch Gräben abgetrennt, um das Schwärmen zu verhindern. Nach 24 h Bebrütung bei 36 °C erfolgte die Bewertung des Bakterienwachstums unter Vergleich mit substanzfreien Kontrollplatten nach folgendem Schema: ++++ ungehemmtes Wachstum +++ geringe Wachstumshemmung (maximal ¾ des Wachstums der Kontrollen) ++ mäßige Wachstumshemmung (maximal ½ des Wachstums der Kontrollen) + starke Wachstumshemmung (maximal ¼ des Wachstums der Kontrollen) Das sog. ? verminderte Wachstum" (v. W.) umfaßt die Bereiche + bis +++ - absolute Hemmung (a. H.)
(§3) In den Tabellen 5, 6 und 7 bedeuten ⊕⊕ ungehemmtes Wachstum und ⊕ vermindertes Wachstum.

Escherichia coli = assay: Agar incorporation test, bacteriostatic activity; assay type: cell-based; design: key: ⊕⊕: ungehemmtes Wachstum; ⊕: vermindertes Wachstum; -: absolute Hemmung (a. H.); conditions: 24 h bei 36 °C
Description: as §2, §3

Proteus mirabilis = assay: Agar incorporation test, bacteriostatic activity; assay type: cell-based; design: key: ⊕⊕: ungehemmtes Wachstum; ⊕: vermindertes Wachstum; -: absolute Hemmung (a. H.); conditions: 24 h bei 36 °C
Description: as §2, §3

Staphylococcus aureus [3] = assay: Agar incorporation test, bacteriostatic activity; assay type: cell-based; design: key: ⊕⊕: ungehemmtes Wachstum; ⊕: vermindertes Wachstum; -: absolute Hemmung (a. H.); conditions: 24 h bei 36 °C
Description: as §2, §3

Pseudomonas aeruginosa = assay: Agar incorporation test, bacteriostatic activity; assay type: cell-based; design: key to Bakteriostatische Wirksamkeit (Wachstum): ⊕⊕: ungehemmtes Wachstum; ⊕: vermindertes Wachstum; -: absolute Hemmung (a. H.); conditions: for Bakteriostatische Wirksamkeit (Wachstum): 24 h bei 36 °C
Description: as §2, §3

[4] = system: FL-Linie (menschliche Amnionzellen); assay: Cytotoxicity, cell count of monolayer culture after 24 h exposure; assay type: cell-based, human; conditions: Prüfkonzentration 0,005 %; 24 h; 1440 min
Protocol: as §1

[5] = Konzentration in Wasser 0,0015 %
[6] = Konzentration in Wasser 0,003 %
[7] = Konzentration in Wasser 0,006 %
[8] = Konzentration in Wasser 0,012 %
[9] = Konzentration in Wasser 0,025 %

CCCCCCCCCCSC(=N)N [Decylthiouroniumbromid]
24 mm: Hemmhofgröße (Staphylococcus aureus [1]; combination: 0,0019% Decylthiouroniumbromid im Agar with Perborat 0,5% im Stanzloch)
33.5%: viability at 24 h ([2]; Prüfkonzentration 0,005 %)
19 mm: Hemmhofgröße (Staphylococcus aureus [1]; combination: 0,0009% Decylthiouroniumbromid im Agar with Perborat 0,5% im Stanzloch)
96.8%: viability at 24 h ([2]; Prüfkonzentration 0,0001 %)

CCCCCCCCCCCCSC(=N)N [Dodecylthiouroniumchlorid]
⊕: Bakteriostatische Wirksamkeit (Wachstum) (Enterococcus faecium; [7]) | Bakteriostatische Wirksamkeit (Wachstum) (Escherichia coli; [8]) | Bakteriostatische Wirksamkeit (Wachstum) (Proteus mirabilis; [8]) | Bakteriostatische Wirksamkeit (Wachstum) (Proteus mirabilis; [9]) | Bakteriostatische Wirksamkeit (Wachstum) (Pseudomonas aeruginosa; Konzentration in Wasser 0,05 %)
0,1%: Konzentration, durch die Pseudomonas aeruginosa gehemmt wird (minimale Hemmkonzentration) (Pseudomonas aeruginosa; single substance, resistentester Testkeim)
101%: viability at 24 h ([2]; Prüfkonzentration 0,0001 %)
-: Bakteriostatische Wirksamkeit (Wachstum) (Enterococcus faecium; Konzentration in Wasser 0,1 %) | Bakteriostatische Wirksamkeit (Wachstum) (Enterococcus faecium; Konzentration in Wasser 0,2 %) | Bakteriostatische Wirksamkeit (Wachstum) (Enterococcus faecium; Konzentration in Wasser 0,4 %) | Bakteriostatische Wirksamkeit (Wachstum) (Enterococcus faecium; Konzentration in Wasser 0,05 %) | Bakteriostatische Wirksamkeit (Wachstum) (Enterococcus faecium; Konzentration in Wasser 0,8 %) | Bakteriostatische Wirksamkeit (Wachstum) (Enterococcus faecium; [8]) | Bakteriostatische Wirksamkeit (Wachstum) (Enterococcus faecium; [9]) | Bakteriostatische Wirksamkeit (Wachstum) (Escherichia coli; Konzentration in Wasser 0,1 %) | Bakteriostatische Wirksamkeit (Wachstum) (Escherichia coli; Konzentration in Wasser 0,2 %) | Bakteriostatische Wirksamkeit (Wachstum) (Escherichia coli; Konzentration in Wasser 0,4 %) | Bakteriostatische Wirksamkeit (Wachstum) (Escherichia coli; Konzentration in Wasser 0,05 %) | Bakteriostatische Wirksamkeit (Wachstum) (Escherichia coli; Konzentration in Wasser 0,8 %) | Bakteriostatische Wirksamkeit (Wachstum) (Escherichia coli; [9]) | Bakteriostatische Wirksamkeit (Wachstum) (Proteus mirabilis; Konzentration in Wasser 0,1 %) | Bakteriostatische Wirksamkeit (Wachstum) (Proteus mirabilis; Konzentration in Wasser 0,2 %) | Bakteriostatische Wirksamkeit (Wachstum) (Proteus mirabilis; Konzentration in Wasser 0,4 %) | Bakteriostatische Wirksamkeit (Wachstum) (Proteus mirabilis; Konzentration in Wasser 0,05 %) | Bakteriostatische Wirksamkeit (Wachstum) (Proteus mirabilis; Konzentration in Wasser 0,8 %) | Bakteriostatische Wirksamkeit (Wachstum) (Staphylococcus aureus [3]; Konzentration in Wasser 0,1 %) | Bakteriostatische Wirksamkeit (Wachstum) (Staphylococcus aureus [3]; Konzentration in Wasser 0,2 %) | Bakteriostatische Wirksamkeit (Wachstum) (Staphylococcus aureus [3]; Konzentration in Wasser 0,4 %) | Bakteriostatische Wirksamkeit (Wachstum) (Staphylococcus aureus [3]; Konzentration in Wasser 0,05 %) | Bakteriostatische Wirksamkeit (Wachstum) (Staphylococcus aureus [3]; Konzentration in Wasser 0,8 %) | Bakteriostatische Wirksamkeit (Wachstum) (Staphylococcus aureus [3]; [7]) | Bakteriostatische Wirksamkeit (Wachstum) (Staphylococcus aureus [3]; [8]) | Bakteriostatische Wirksamkeit (Wachstum) (Staphylococcus aureus [3]; [9]) | Bakteriostatische Wirksamkeit (Wachstum) (Pseudomonas aeruginosa; Konzentration in Wasser 0,1 %) | Bakteriostatische Wirksamkeit (Wachstum) (Pseudomonas aeruginosa; Konzentration in Wasser 0,2 %) | Bakteriostatische Wirksamkeit (Wachstum) (Pseudomonas aeruginosa; Konzentration in Wasser 0,4 %) | Bakteriostatische Wirksamkeit (Wachstum) (Pseudomonas aeruginosa; Konzentration in Wasser 0,8 %)
69,9 % der Kontrolle: Median der Zellzahl [4]
⊕⊕: Bakteriostatische Wirksamkeit (Wachstum) (Enterococcus faecium; [5]) | Bakteriostatische Wirksamkeit (Wachstum) (Enterococcus faecium; [6]) | Bakteriostatische Wirksamkeit (Wachstum) (Escherichia coli; [5]) | Bakteriostatische Wirksamkeit (Wachstum) (Escherichia coli; [6]) | Bakteriostatische Wirksamkeit (Wachstum) (Escherichia coli; [7]) | Bakteriostatische Wirksamkeit (Wachstum) (Proteus mirabilis; [5]) | Bakteriostatische Wirksamkeit (Wachstum) (Proteus mirabilis; [6]) | Bakteriostatische Wirksamkeit (Wachstum) (Proteus mirabilis; [7]) | Bakteriostatische Wirksamkeit (Wachstum) (Staphylococcus aureus [3]; [5]) | Bakteriostatische Wirksamkeit (Wachstum) (Staphylococcus aureus [3]; [6]) | Bakteriostatische Wirksamkeit (Wachstum) (Pseudomonas aeruginosa; [5]) | Bakteriostatische Wirksamkeit (Wachstum) (Pseudomonas aeruginosa; [6]) | Bakteriostatische Wirksamkeit (Wachstum) (Pseudomonas aeruginosa; [7]) | Bakteriostatische Wirksamkeit (Wachstum) (Pseudomonas aeruginosa; [8]) | Bakteriostatische Wirksamkeit (Wachstum) (Pseudomonas aeruginosa; [9])
70%: viability at 24 h ([2]; Prüfkonzentration 0,005 %)
